Assay results from ChEMBL document CHEMBL1821714, “Discovery, synthesis and SAR of azinyl- and azolylbenzamides antagonists of the P2X₇ receptor” (Bioorg Med Chem Lett, 2011).

Key:
[1] = biological target: T1, P2X purinoceptor 7 (Homo sapiens, UniProt Q99572); test: Antagonist activity at P2X7R expressed in HEK293 cells assessed as inhibition of ATP-induced YO-PRO-1 uptake; format: functional, cell-based
T1 sequence (Q99572 whole entry): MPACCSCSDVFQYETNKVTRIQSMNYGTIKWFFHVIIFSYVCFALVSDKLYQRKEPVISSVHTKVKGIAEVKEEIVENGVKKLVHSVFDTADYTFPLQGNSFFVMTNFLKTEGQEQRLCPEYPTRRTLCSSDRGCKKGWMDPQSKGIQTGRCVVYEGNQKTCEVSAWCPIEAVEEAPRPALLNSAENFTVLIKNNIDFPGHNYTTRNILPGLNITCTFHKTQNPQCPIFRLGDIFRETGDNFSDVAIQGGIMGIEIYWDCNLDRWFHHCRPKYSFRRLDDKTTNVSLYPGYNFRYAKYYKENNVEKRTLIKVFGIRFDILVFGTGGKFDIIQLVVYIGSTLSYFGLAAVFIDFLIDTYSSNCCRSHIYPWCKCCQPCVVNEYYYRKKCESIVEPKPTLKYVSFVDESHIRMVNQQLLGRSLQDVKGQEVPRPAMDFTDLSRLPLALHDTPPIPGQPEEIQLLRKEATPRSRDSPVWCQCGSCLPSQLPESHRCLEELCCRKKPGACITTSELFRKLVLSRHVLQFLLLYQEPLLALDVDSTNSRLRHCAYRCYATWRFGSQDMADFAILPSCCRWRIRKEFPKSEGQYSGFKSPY

[2] = Half life in human liver microsomes
[3] = biological target: T1, P2X purinoceptor 7; test: Antagonist activity at P2X7R expressed in LPS-stimulated human whole blood assessed as inhibition of ATP-induced IL1-beta release; format: functional, tissue-based
[4] = biological target: T2, P2X purinoceptor 7 (Homo sapiens) (UniProt Q99572); test: Antagonist activity at P2X7R expressed in LPS-activated human monocytes assessed as inhibition of ATP-induced IL1-beta release at 1 uM in presence of low serum concentration; format: functional, cell-based
T2 sequence (whole entry): T1 sequence (Q99572 whole entry)

[5] = biological target: T1, P2X purinoceptor 7; test: Antagonist activity at P2X7R expressed in LPS-activated human monocytes assessed as inhibition of ATP-induced IL1-beta release in presence of low serum concentration; format: functional, cell-based
[6] = Volume of distribution at steady state in iv dosed rat; settings: in vivo
[7] = tested on: MDCK; test: Ratio of permeability from basolateral to apical over apical to basolateral side in dog MDCK cells expressing MDR1; format: ADME, cell-based, Canis lupus familiaris
[8] = Oral bioavailability in rat; settings: in vivo
[9] = Lipophilicity, log P of the compound; format: physicochemical; settings: octanol/water
[10] = Permeability from apical to basolateral side of human Caco2 cells; format: ADME, cell-based; settings: Caco-2, read-out: permeability
[11] = Distribution coefficient, log D of the compound; format: physicochemical; settings: octanol/water
[12] = tested on: MDCK; test: Permeability from apical to basolateral side of dog MDCK cells expressing MDR1; format: ADME, cell-based, Canis lupus familiaris
[13] = Half life in iv dosed rat; settings: in vivo
[14] = tested on: MDCK; test: Permeability from basolateral to apical side of dog MDCK cells expressing MDR1; format: ADME, cell-based, Canis lupus familiaris

**Q.** Which IC50 [1] does the source give for `COc1ccc(-c2ccc(Cl)c(C(=O)NCC3(O)CCCCCC3)c2)nn1` here?
**A.** 28 nM

**Q.** What about the half-life ([2]; liver microsomes) of the same molecule?
**A.** 1.28 h

**Q.** And the IC50 [3]?
**A.** 510 nM

**Q.** For `Cc1cccnc1-c1ccc(Cl)c(C(=O)NCCc2ccccc2Cl)c1`, which inhibition [4] is on record?
**A.** 0%

**Q.** For `O=C(NCCc1ccccc1Cl)c1cc(-c2ccc(Cl)cn2)ccc1Cl`, which IC50 [5] is on record?
**A.** 460 nM

**Q.** With `CC(O)c1ccc(-c2ccc(Cl)c(C(=O)NCCc3ccccc3Cl)c2)nc1` (stereo not drawn) as the molecule, how does the IC50 [5] read?
**A.** 668 nM

**Q.** With `O=C(NCCc1ccccc1Cl)c1cc(-c2ccncc2)ccc1Cl` as the molecule, how does the IC50 [5] read?
**A.** 5200 nM

**Q.** For `Cc1cc(-c2ccc(Cl)c(C(=O)NCC3(O)CCCCCC3)c2)nn1C[C@@H](O)CN.Cl`, which IC50 [1] is on record?
**A.** 0.5 nM

**Q.** And the Vd [6]?
**A.** 11.7 L/kg

**Q.** And the IC50 [5]?
**A.** 2 nM

**Q.** What about the Ratio [7] of the same molecule?
**A.** 11.5

**Q.** What about the bioavailability [8] of the same molecule?
**A.** 9%

**Q.** What about the half-life ([2]; liver microsomes) of the same molecule?
**A.** > 2 h

**Q.** What about the logP [9] of the same molecule?
**A.** 2.6

**Q.** What about the Papp A→B [10] of the same molecule?
**A.** 2.98 ×10⁻⁶ cm/s

**Q.** What about the logD [11] of the same molecule?
**A.** 1.6

**Q.** What about the permeability [12] of the same molecule?
**A.** 0.26 ×10⁻⁶ cm/s

**Q.** What about the half-life [13] of the same molecule?
**A.** 8.36 h

**Q.** And the IC50 [3]?
**A.** 3 nM

**Q.** What about the permeability [14] of the same molecule?
**A.** 2.39 ×10⁻⁶ cm/s

**Q.** With `Cc1cccc(-c2ccc(Cl)c(C(=O)NCCc3ccccc3Cl)c2)n1` as the molecule, how does the inhibition [4] read?
**A.** 0%

**Q.** For `O=C(NCCc1ccccc1Cl)c1cc(-c2n[nH]c(=O)[nH]c2=O)ccc1Cl`, which IC50 [5] is on record?
**A.** 1050 nM

**Q.** Which IC50 [1] does the source give for `O=C(NCC1(O)CCCCCC1)c1cc(-c2ccc(=O)[nH]n2)ccc1Cl` here?
**A.** 180 nM

**Q.** For `Cn1nccc1-c1ccc(Cl)c(C(=O)NCC2(O)CCCCCC2)c1`, which IC50 [1] is on record?
**A.** 266 nM

**Q.** What about the IC50 [5] of the same molecule?
**A.** > 1000 nM

**Q.** With `N#Cc1ccc(-c2ccc(Cl)c(C(=O)NCCc3ccccc3Cl)c2)nc1` as the molecule, how does the inhibition [4] read?
**A.** 0%

**Q.** For `O=C(NCCc1ccccc1Cl)c1cc(-c2cccnc2)ccc1Cl`, which IC50 [5] is on record?
**A.** 4800 nM

**Q.** Which inhibition [4] does the source give for `CC(=O)c1ccc(-c2ccc(Cl)c(C(=O)NCCc3ccccc3Cl)c2)nc1` here?
**A.** 0%

**Q.** Which IC50 [5] does the source give for `Cc1ccc(-c2ccc(Cl)c(C(=O)NCCc3ccccc3Cl)c2)nn1` here?
**A.** 250 nM

**Q.** For `O=C(NCC1(O)CCCCCC1)c1cc(-c2c[nH]cn2)ccc1Cl`, which IC50 [5] is on record?
**A.** 510 nM

**Q.** And the half-life ([2]; liver microsomes)?
**A.** 1.42 h

**Q.** Which IC50 [5] does the source give for `NC(=O)c1ccc(-c2ccc(Cl)c(C(=O)NCCc3ccccc3Cl)c2)nc1` here?
**A.** 720 nM

**Q.** Which IC50 [5] does the source give for `COC[C@H](O)Cn1c(=O)cnn(-c2ccc(Cl)c(C(=O)NCC3(O)CCCCCC3)c2)c1=O` [CE-224535] here?
**A.** 1.3 nM

**Q.** With `Cn1ccc(-c2ccc(Cl)c(C(=O)NCC3(O)CCCCCC3)c2)n1` as the molecule, how does the IC50 [5] read?
**A.** 238 nM

**Q.** What about the half-life ([2]; liver microsomes) of the same molecule?
**A.** 0.0617 h

**Q.** And the IC50 [3]?
**A.** 440 nM

**Q.** For `O=C(NCC1(O)CCCCCC1)c1cc(-c2cc[nH]n2)ccc1Cl`, which IC50 [1] is on record?
**A.** 12 nM

**Q.** And the half-life ([2]; liver microsomes)?
**A.** 0.2 h

**Q.** And the IC50 [3]?
**A.** 610 nM

**Q.** For `Cc1nc(-c2ccc(Cl)c(C(=O)NCC3(O)CCCCCC3)c2)cs1`, which IC50 [1] is on record?
**A.** 6 nM

**Q.** Which IC50 [5] does the source give for `O=C(NCCc1ccccc1Cl)c1cc(-c2ccc(C(F)(F)F)cn2)ccc1Cl` here?
**A.** 4600 nM

**Q.** For `O=C(NCCc1ccccc1Cl)c1cc(-c2ccccn2)ccc1Cl`, which IC50 [5] is on record?
**A.** 1600 nM

**Q.** For `O=C(NCC1(O)CCCCCC1)c1cc(-c2cnoc2)ccc1Cl`, which IC50 [5] is on record?
**A.** 240 nM

**Q.** And the half-life ([2]; microsomes)?
**A.** 0.372 h

**Q.** Which IC50 [1] does the source give for `Cc1cc(-c2ccc(Cl)c(C(=O)NCC3(O)CCCCCC3)c2)nn1C[C@H](O)CN.Cl` here?
**A.** 3 nM

**Q.** What about the IC50 [5] of the same molecule?
**A.** 7 nM

**Q.** What about the Ratio [7] of the same molecule?
**A.** 10.5

**Q.** What about the half-life ([2]; liver microsomes) of the same molecule?
**A.** > 2 h

**Q.** And the logP [9]?
**A.** 2.6

**Q.** What about the Papp A→B [10] of the same molecule?
**A.** 10.5 ×10⁻⁶ cm/s

**Q.** What about the logD [11] of the same molecule?
**A.** 1.6

**Q.** And the permeability [12]?
**A.** 0.26 ×10⁻⁶ cm/s

**Q.** What about the IC50 [3] of the same molecule?
**A.** 10 nM

**Q.** What about the permeability [14] of the same molecule?
**A.** 2.2 ×10⁻⁶ cm/s

**Q.** For `COc1ccc(-c2ccc(Cl)c(C(=O)NCCc3ccccc3Cl)c2)nn1`, which IC50 [5] is on record?
**A.** 490 nM

**Q.** For `Cc1ccc(-c2ccc(Cl)c(C(=O)NCCc3ccccc3Cl)c2)nc1`, which IC50 [5] is on record?
**A.** 110 nM

**Q.** With `Cc1ccnc(-c2ccc(Cl)c(C(=O)NCCc3ccccc3Cl)c2)c1` as the molecule, how does the inhibition [4] read?
**A.** 0%

**Q.** Which IC50 [5] does the source give for `CCCCC(CC)CNC(=O)c1cc(-n2ncc(=O)[nH]c2=O)ccc1Cl` (stereo not drawn) here?
**A.** 820 nM
